Measured values taken from US20240218016A1, “PEPTIDES AND THEIR USE IN THE TREATMENT OF INFLAMMATION” (Shenzhen Institutes of Advanced Technology, priority 2019, published 2024).
Where no end group is shown, it is not given here. [ ]: non-standard residue; d: D form. The star is where a group is joined. Dihydrocaffeoyl = O=C(CCc1ccc(O)c(O)c1)*; Dopa = N[C@@H](Cc1ccc(O)c(O)c1)C(=O)O; Hyp = O=C(O)[C@@H]1C[C@@H](O)CN1

System: xylene-induced ear swelling
Assay: Mouse ear swelling model (xylene-induced)
Assay type: in vivo, BALB/c mice
Settings: for Swelling rate: (right ear weight - left ear weight)/left ear weight x 100, about 0.1 g gel (peptide 0.5 mg/g) or Dex cream on right ear 1 hour before 20 μL xylene, ears taken 40 minutes after xylene, 5 mice per group; for anti-inflammatory effects compared with the other peptides tested: xylene mouse ear swelling, topical gels 0.5 mg/g
Experimental: 35 Health male BALB/c mice with 6-8 weeks old and average body weight of 18-25 g were supplied from Changzhou Cvens Experimental Animal Co., Ltd. and housed and cared for about 1 week prior to the experiment. The housing temperature was around 25 to 27 ° C. with 74% humidity, alternating 12-hour periods of light and darkness, and free access to food and water. The mice were randomly divided into 7 groups as described in Table 5 below, with 5 mice in each group. [table] Dexamethasone acetate cream (Dex cream; 5 mg/10 g (which means that there was 5 mg Dex contained in 10 g of the cream), Fuyuan Pharmaceutical Co. Ltd., Anhui, China) was used as positive control. The left ear of each mouse was used as an autologous control. The right ear of each mouse was treated with the above compounds in the stated concentrations. About 0.1 g of the various gels, and Dex cream were applied to the right ear of mice in each group, both inside and outside. The blank gel base was applied on the ears in the model groups. After 1 hour, 20 μL of xylene (Shanghai Aladdin Bio-Chem Technology Co., Ltd.) was applied to the same ear of each mouse. The mice were sacrificed by cervical dislocation 40 minutes after xylene application. The left and right ears were cut off. An EMS skin biopsy punch with a diameter of 8 mm was used to take a piece of the ear from the same site on both ears. The weights were recorded, and the swelling rate was calculated as a percentage according to the following formula: (right ear weight−left ear weight)/left ear weight×100

Row | Substance | Swelling rate | anti-inflammatory effects compared with the other peptides tested
1 | 58 (KAKPS[Dopa][Hyp][Hyp]T-dopamine) [compound 58] | 43% | stronger than the other peptide compounds tested
2 | 15 (Dihydrocaffeoyl-AKPS[Dopa][Hyp]T[Dopa][Hyp]K) [compound 15] | 63% | 
3 | 18 (Dihydrocaffeoyl-AKPS[Dopa][Hyp][Hyp]T[Dopa]K) [compound 18] | 57% | 
4 | 22 (Dihydrocaffeoyl-KPS[Dopa][Hyp]TA[Hyp]K) [compound 22] | 40% | stronger than the other peptide compounds tested
